Active and inactive are the calls of the source. The rule behind the calls is not given here.
What follows are molecules tested against Gag-Pol polyprotein (Human immunodeficiency virus type 2 subtype A (isolate ROD)) (UniProt P04584) (assay: Reverse transcriptase ribonuclease H inhibitors, biochemical concentration-response (AID 367)). Settings: HIV-2 RNase H, FRET RNA/DNA substrate cleavage.
Sequence of Gag-Pol polyprotein (Human immunodeficiency virus type 2 subtype A (isolate ROD)) (P04584 whole entry, looked up): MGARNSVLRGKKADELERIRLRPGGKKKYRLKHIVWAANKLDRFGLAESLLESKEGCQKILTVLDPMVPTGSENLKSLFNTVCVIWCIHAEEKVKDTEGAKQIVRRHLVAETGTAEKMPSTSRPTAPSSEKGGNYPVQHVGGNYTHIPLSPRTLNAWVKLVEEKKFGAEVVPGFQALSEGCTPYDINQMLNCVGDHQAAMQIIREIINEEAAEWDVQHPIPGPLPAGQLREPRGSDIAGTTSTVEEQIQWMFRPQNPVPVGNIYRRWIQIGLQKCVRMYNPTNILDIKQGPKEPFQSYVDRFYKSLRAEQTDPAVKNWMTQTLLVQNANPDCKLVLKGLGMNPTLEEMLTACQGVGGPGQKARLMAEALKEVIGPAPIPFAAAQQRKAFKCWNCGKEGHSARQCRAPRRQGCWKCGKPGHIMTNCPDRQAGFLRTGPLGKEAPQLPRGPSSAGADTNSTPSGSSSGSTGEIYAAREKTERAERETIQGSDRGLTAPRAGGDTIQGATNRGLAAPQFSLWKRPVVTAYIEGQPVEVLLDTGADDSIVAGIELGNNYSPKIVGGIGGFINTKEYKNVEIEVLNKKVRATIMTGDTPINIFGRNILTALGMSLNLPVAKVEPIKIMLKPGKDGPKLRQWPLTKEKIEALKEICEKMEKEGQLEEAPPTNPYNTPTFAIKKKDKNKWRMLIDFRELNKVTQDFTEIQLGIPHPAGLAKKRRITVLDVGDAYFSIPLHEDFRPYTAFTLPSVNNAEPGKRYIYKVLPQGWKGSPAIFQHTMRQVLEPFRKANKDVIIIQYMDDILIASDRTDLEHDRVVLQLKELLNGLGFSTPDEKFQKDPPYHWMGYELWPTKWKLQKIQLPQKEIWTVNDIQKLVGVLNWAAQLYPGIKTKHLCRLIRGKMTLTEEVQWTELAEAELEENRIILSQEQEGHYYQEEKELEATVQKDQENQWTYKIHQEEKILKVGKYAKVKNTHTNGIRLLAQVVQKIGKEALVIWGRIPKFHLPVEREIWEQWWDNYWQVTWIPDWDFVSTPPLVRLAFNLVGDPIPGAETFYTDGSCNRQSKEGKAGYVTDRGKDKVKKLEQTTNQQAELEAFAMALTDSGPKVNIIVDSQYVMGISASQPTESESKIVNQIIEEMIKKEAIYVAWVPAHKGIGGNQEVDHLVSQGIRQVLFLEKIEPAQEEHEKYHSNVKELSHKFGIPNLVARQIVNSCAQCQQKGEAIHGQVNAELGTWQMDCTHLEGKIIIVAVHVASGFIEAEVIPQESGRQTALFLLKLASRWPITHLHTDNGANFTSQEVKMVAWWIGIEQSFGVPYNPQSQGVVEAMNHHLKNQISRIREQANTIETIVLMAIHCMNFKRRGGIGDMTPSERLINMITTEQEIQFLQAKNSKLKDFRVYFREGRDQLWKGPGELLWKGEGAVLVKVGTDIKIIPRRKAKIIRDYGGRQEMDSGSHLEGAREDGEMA

Structure (SMILES)	IC50
Cc1cc(C)c2c(=O)[nH]c(SCC(=O)c3ccc(O)c(O)c3)nc2n1	3000 nM
S=C(Nc1ccc2c(c1)Cc1ccccc1-2)Nc1ccc2c(c1)Cc1ccccc1-2	inactive
O=c1[nH]c(=S)n(-c2ccccc2F)c(O)c1C=C1C=CC=N1	2300 nM
COc1ccc(-c2c(C#N)c(N)nc(SCC(=O)c3ccc(O)c(O)c3)c2C#N)cc1	700 nM
O=C(O)C1CCCCC1c1c2ccc(=O)c(O)c-2oc2c(O)c(O)ccc12 (stereo unspecified)	600 nM
O=C(O)/C=C/c1c2ccc(=O)c(O)c-2oc2c(O)c(O)ccc12	500 nM

From PubChem BioAssay AID367 (MTDP, 2006)
